Reference: ChEMBL document CHEMBL5550203, “A Comprehensive In Vitro Characterization of a New Class of Indole-Based Compounds Developed as Selective Haspin Inhibitors” (J Med Chem, 2024)

How the values were obtained:
[1] = human, microsomes, 1 h
[2] = human, plasma, 2 h, 10 µM
Description: Stability in human plasma at 10 uM measured upto 120 mins by LC-MS analysis

physchem [3] = conditions: simulated gastric fluid
Description: Chemical stability in stimulated gastric fluid assessed as compound remaining at 10 uM measured upto 120 mins by LC-MS analysis

physchem [4] = conditions: simulated intestinal fluid
Description: Chemical stability in stimulated intestinal fluid assessed as compound remaining at 10 uM measured upto 120 mins by LC-MS analysis

[5] = rat, plasma, 2 h, 10 µM
Description: Stability in rat plasma at 10 uM measured upto 120 mins by LC-MS analysis

Cc1ccc(NC(=O)c2ccc3c(c2)c(CNCCN2CCNCC2)cn3C)cc1C
Stability [1]: Stable | Stability [2]: Stable | remaining at 2 h, 10 µM (physchem [3]): > 80% | remaining at 2 h, 10 µM (physchem [4]): > 80% | Stability [5]: Stable
